In patent US20260262647A1, “Synergistic Compositions Containing Guanidine” (Thor GmbH, priority 2023, published 2026):

How the values were obtained:
Assay type in all cases: cell-based
yeast mixture [1] = assay: Laundry detergent inoculated once with yeast mixture, semiquantitative growth evaluation; set-up: key: 0: No growth; Minimal growth, 1 to 10 colonies visible over the entire streak; 2: Light growth, maximum 100 colonies; Moderate growth, maximum 300 to 400 colonies; Uniform growth, >400 colonies, single colonies still clearly recognizable; 5: Heavy growth, too many colonies to count, but no growth over the entire streak; 6: Full growth, barely any single colonies still apparent, growth over the entire streak; conditions: Example 37, laundry detergent, +8000 ppm guanidine hydrochloride (4944 ppm guanidine)
Text: (§1) In examples 35 to 38 below, synergistic interaction between guanidine and antimicrobial substances with respect to microbial infestation was studied using an emulsion paint and a laundry detergent or cleaning composition by adding particular amounts of guanidine salts and isothiazolinones and examining their stability against microbial infestation: […] The laundry detergent was a heavy-duty laundry detergent without preservatives (pH 8.1), and the cleaning composition was an all-purpose detergent without preservatives (pH 7.6), each likewise made in the laboratory, without addition of the otherwise usual conventional preservatives. To each paint was added—individually and in combination—particular concentrations of guanidinium hydrochloride, benzisothiazolinone (BIT), and a mixture of chloromethylisothiazolinone (CIT) and methylisothiazolinone (MIT). The laundry detergent and the cleaning composition were admixed with particular concentrations of guanidinium hydrochloride and benzisothiazolinone (BIT). The resultant batches of the paint thus prepared were inoculated with a mixture of different bacteria species (bacteria mixture B); the batches of the laundry detergent and cleaning compositions thus prepared were inoculated with a yeast mixture. • Pichia manshurica DSM 12249 • Rhodotorula mucilaginosa DSM 12248 • Candida boidinii DSM 13622 • Candida albicans DSM 1386 […] Further steps for establishment of a cell count of the inoculum suspension of 10^8/ml were effected analogously to the production of the bacteria suspension. […] The streaked agar plates were then incubated at 30° C. for 48 hours (bacteria) or at 25° C. for 72 hours (yeasts). After incubation, the bacterial or yeast colonies that have grown on the agar plates were visually evaluated and quantified according to the following scheme: [table]

bacteria mixture B = assay: Emulsion paint inoculated once with bacteria mixture B, semiquantitative growth evaluation; set-up: key: 0: No growth; Minimal growth, 1 to 10 colonies visible over the entire streak; 2: Light growth, maximum 100 colonies; Moderate growth, maximum 300 to 400 colonies; Uniform growth, >400 colonies, single colonies still clearly recognizable; 5: Heavy growth, too many colonies to count, but no growth over the entire streak; 6: Full growth, barely any single colonies still apparent, growth over the entire streak; conditions: +6000 ppm guanidine hydrochloride (3708 ppm guanidine)
Text: In examples 35 to 38 below, synergistic interaction between guanidine and antimicrobial substances with respect to microbial infestation was studied using an emulsion paint and a laundry detergent or cleaning composition by adding particular amounts of guanidine salts and isothiazolinones and examining their stability against microbial infestation: […] The laundry detergent was a heavy-duty laundry detergent without preservatives (pH 8.1), and the cleaning composition was an all-purpose detergent without preservatives (pH 7.6), each likewise made in the laboratory, without addition of the otherwise usual conventional preservatives. To each paint was added—individually and in combination—particular concentrations of guanidinium hydrochloride, benzisothiazolinone (BIT), and a mixture of chloromethylisothiazolinone (CIT) and methylisothiazolinone (MIT). The laundry detergent and the cleaning composition were admixed with particular concentrations of guanidinium hydrochloride and benzisothiazolinone (BIT). The resultant batches of the paint thus prepared were inoculated with a mixture of different bacteria species (bacteria mixture B); the batches of the laundry detergent and cleaning compositions thus prepared were inoculated with a yeast mixture. • Pseudomonas spp. (Pseudomonas oleovorans group) DSM 33933 • Pseudomonas aeruginosa DSM 33935 • Pseudomonas oleovorans DSM 33936 • Pseudomonas spec. DSM 33937 • Pseudomonas aeruginosa DSM 33938 […] The cell suspension of the bacteria mixture was produced by growing the individual bacteria at 30° C. for 24 h in liquid culture on a shaker. The growth medium used for the bacteria was Müller-Hinton liquid medium. After growing, the individual liquid cultures were centrifuged, and the cells were resuspended in physiological saline solution. […] The cell count of the inoculum was determined in each case by chamber counting. […] The streaked agar plates were then incubated at 30° C. for 48 hours (bacteria) or at 25° C. for 72 hours (yeasts). After incubation, the bacterial or yeast colonies that have grown on the agar plates were visually evaluated and quantified according to the following scheme: [table]

[2] = test system: Pseudomonas putida DSM 115323; assay: Minimum inhibitory concentrations and synergy index in Müller-Hinton broth
Method: Test organisms used were Gram-negative bacterial species from the group of pseudomonads, Pseudomonas putida DSM 115323 and Pseudomonas spec. DSM 115322. For this purpose, mixtures with different concentrations of the respective active substances were prepared and tested for their effect on the pseudomonads. The test was run in Müller-Hinton broth MHB with a cell density of 10^6 microbes per ml. When organic acids are used as a combination partner with the guanidine, MHB was adjusted to pH 5.5.
The incubation was run in microplates at 30° C. for 48 hours. After 48 hours, the batches were evaluated for turbidity resulting from growth, and optical density was additionally determined photometrically. In this way, the minimum inhibitory concentrations (MICs) of the two actives were determined individually and in combination.
The calculation was done according to the standard method of F. C. Kull et al., Applied Microbiology, vol. 9 (1961), p. 538.
This involves calculating the synergy index (SI) by the following formula:
[formula] • Qa=concentration of component A in the A+B mixture • QA=concentration of component A as the sole biocide • Qb=concentration of component B in the A+B mixture • QB=concentration of component B as the sole biocide
If the synergy index is greater than 1, this means that there is antagonism. If the synergy index assumes the value 1, this means that the effect of the two biocides/compounds is additive. If the synergy index assumes a value of less than 1, this means that there is synergism between the two biocides/compounds.

yeast mixture [3] = assay: All-purpose detergent inoculated once with yeast mixture, semiquantitative growth evaluation; set-up: key: 0: No growth; Minimal growth, 1 to 10 colonies visible over the entire streak; 2: Light growth, maximum 100 colonies; Moderate growth, maximum 300 to 400 colonies; Uniform growth, >400 colonies, single colonies still clearly recognizable; 5: Heavy growth, too many colonies to count, but no growth over the entire streak; 6: Full growth, barely any single colonies still apparent, growth over the entire streak; conditions: Example 38, all-purpose detergent, +8000 ppm guanidine hydrochloride (4944 ppm guanidine)
Text: as §1

## N=C(N)N [guanidine]
Yeast mixture [1]; Day 1
  Bacterial growth: 6
Yeast mixture [1]; Day 3
  Bacterial growth: 6
Bacteria mixture B; Example 35, emulsion paint, Day 1
  Bacterial growth: 6
Bacteria mixture B; Example 35, emulsion paint, Day 6
  Bacterial growth: 6
Bacteria mixture B; Example 36, emulsion paint, Day 1
  Bacterial growth: 6
Bacteria mixture B; Example 36, emulsion paint, Day 6
  Bacterial growth: 6
[2]; guanidine (added as guanidine hydrochloride) alone, 48 hours at 30° C.
  QA: Concentration of guanidine as the sole agent that shows an endpoint: 6180 ppm
[2]; guanidine and CIT, Qa, Qb
  Synergy index Qa/QA + Qb/QB: 1.00
Yeast mixture [3]; Day 1
  Yeast growth: 6
Yeast mixture [3]; Day 3
  Yeast growth: 4 (Uniform growth, >400 colonies, single colonies still clearly recognizable)
